Results published in article PMC10745422, “Absorption, Distribution, Metabolism, and Excretion of [^14C]BS1801, a Selenium-Containing Drug Candidate, in Rats” (Molecules, 2023).

How the values were obtained:
[1] = tested on: albumin; set-up: method as in PMID 17363345, PMID 7945407; settings: cited from earlier work
[2] = Mass balance: excretion of radioactivity in urine and feces after a single oral dose of [^14C]BS1801; type: in vivo, Sprague–Dawley (SD, Rattus norvegicus) rats
Method: (§1) BS1801 and [^14C]BS1801 were prepared in 0.5% sodium carboxymethyl cellulose solution at a target concentration of 10 mg/mL (10 μCi/mL). The radioactivity of [^14C]BS1801 was measured using a liquid scintillation counter (LSC) (Hidex, Turku, Finland) before and after administration, and a single dose of 10 mL/kg was administered orally.
Three male and three female SD rats were housed individually in metabolic cages. Urine samples were collected from each rat at predose and 0–8, 8–24, 24–48, 48–72, 72–96, 96–120, 120–144, and 144–168 h postdose. When each urine sample was collected, the metabolic cage was flushed with a small amount of water for 0–72 h and methanol/water (50:50, v:v) for 72–168 h, and the flushing solution was added to the urine sample for the corresponding period. Fecal samples were also collected at predose and 0–24, 24–48, 48–72, 72–96, 96–120, 120–144, and 144–168 h postdose. Urine and fecal samples were weighed and recorded during each collection period. All samples were stored at −20 °C for testing.
(§2) Samples of urine (100 μL), bile (30 μL), and plasma (100 μL from the tissue distribution study) were weighed and added to 15 mL scintillation solution. Among them, urine and bile samples were duplicated, and plasma samples were in singlicate. The radioactivity was measured directly via LSC.
(§3) Approximately three times the weight of methanol/water (50:50, v:v) was added to each fecal sample and homogenized with a homogenizer (SKGZ, Shanghai Biheng, Shanghai, China). Approximately 0.2~0.3 g of the fecal homogenate was weighed in a combustion boat, and dried overnight. Blood samples (100 μL) and tissue samples (approximately 0.1 g) were weighed into burning boats. After the samples were completely dried, they were combusted using a Biological Sample Oxidizer (OTCS-11/1, Shanghai Yixing, Shanghai, China). The ^14CO2 generated was captured with 15 mL alkaline scintillation solution; then, the radioactivity was measured using LSC.

[3] = Biliary excretion of radioactivity in bile duct cannulated (BDC) rats; type: in vivo, Sprague–Dawley (SD, Rattus norvegicus) rats; settings: BDC SD rats, single intragastric 100 mg/kg, within 72 h
Method: as §1
Bile duct cannulation (BDC) was performed in 3 male and 3 female SD rats before drug administration. After the operation, the wounds were wiped with iodophor for 2 days, and painkillers were administered appropriately. The state of the rats was observed daily, and the drug was administered only when no abnormality was observed within 2 days. Bile was collected before and 0–4, 4–8, 8–24, 24–48, and 48–72 h after dosing. The weights of the bile samples were recorded, and the samples were stored at −20 °C until testing.
as §2

[4] = Tissue distribution of radioactivity after a single oral dose of [^14C]BS1801; type: in vivo, Long–Evans (LE, Rattus norvegicus) rats; settings: total radioactivity
Method: as §1
Twenty-four LE rats (12 of each sex) were used for tissue distribution studies. Three male and three female rats were sacrificed through abdominal aortic bleeding at 2, 10, 48, and 96 h after administration. Approximately 1/5 of the blood was stored frozen at −20 °C, and the remaining blood was centrifuged (3500× g, 5 min, 4 °C) to obtain plasma. The brain, heart, lung, liver, stomach wall, spleen, kidney, muscle, pigmented fat, ovary, womb, testis, bladder wall, pancreas, small intestine wall, large intestine wall, eye, pigmented skin, thymus, spinal cord, and marrow were also collected. The tissues were washed with saline, dried, and stored at −20 °C until testing.
as §2, §3

[5] = Metabolite radio-profiling and identification in pooled plasma, urine, feces and bile (UHPLC-β-RAM/UV/QE MS); type: in vivo, Sprague–Dawley (SD, Rattus norvegicus) rats
Method: Three SD rats of each sex were used to obtain plasma samples. […] All samples were stored at −20 °C for analysis.
Then, 3 mL of methanol/water (50:50, v:v) was slowly added to the pooled plasma (1 mL), followed by vortexing for 1 min and sonication for 10 min twice. Then, the upper extract and the lower precipitate were separated by centrifugation (5000 rpm, 10 min). The supernatant was transferred to another new centrifuge tube. Then, 1 mL of water was added to the precipitate, vortexed for 1 min, and sonicated for 10 min. Then, 2 mL of methanol/acetonitrile (50:50, v:v) was added to the mixture, two vortexes were performed for 1 min, and the mixture was ultrasonicated for 10 min, followed by centrifugation (5000 rpm, 10 min). The two-times supernatant extracts were combined and dried under a nitrogen stream and finally redissolved with acetonitrile/water (20:80, v:v). The recoveries of extraction and reconstitution processes were measured via LSC.
The pooled urine was vortexed and centrifuged (5000 rpm, 10 min). After centrifugation, the supernatant was dried under a nitrogen stream and then redissolved in acetonitrile/water (20:80, v:v).
The pooled fecal homogenate (1 g) was extracted by using the same method as for the plasma. The supernatant was then evaporated under a nitrogen stream and redissolved in 300 μL acetonitrile/water (20:80, v:v).
An ACQUITY UPLC BEH Pheny column (100 × 2.1 mm, 1.7 μm) with a Phenomenex KrudKatcher Ultra HPLC In-Line Filter guard column (2 µm, Depth Filter × 0.004 in ID) was used to perform metabolite radio-profiling and characterization on the Vanquish UHPLC system, which was combined with a QExactive Plus mass spectrometer (Thermo, Waltham, MA, USA) containing an electrospray ionization (ESI) source. The column temperature was 40 °C, and the flow rate was 0.45 mL/min. The mobile phases contained 5 mM ammonium acetate with 0.1% formic acid in water (A) and acetonitrile (B). […] The mass spectrometer was operated in positive (+ESI) mode with a m/z 100–1500 Da scanning range. The optimized MS parameters were as follows: sheath gas, 35 L/min; auxiliary gas, 10 L/min; capillary temperature, 320 °C; and spray voltage, 3.8 kV. Data acquisition was performed using Xcalibur 4.1 software (Thermo, Waltham, MA, USA), and data analysis was accomplished using Compound Discoverer software 3.3 SP2 (Thermo, Waltham, MA, USA).
The extracted plasma, urine, feces, and bile samples were separated via UHPLC and detected using an online/offline radioactivity detector to obtain the corresponding radioactive metabolite profiles. Due to low radioactivity of plasma, the UHPLC eluent was collected using a UHPLC fraction collector (Thermo, Waltham, MA, USA) over time (10 s/well) on Deepwell LumaPlateTM 96-well plates. After evaporation via a vacuum centrifuge concentrator, the radioactivity was determined with an offline Sense Beta detector (1 min/well, Hidex, Turku, Finland). For the urine, feces, and bile samples, the UHPLC eluent was analyzed using an online radioactivity detector β-RAM. Radioactive metabolite profiling was integrated to obtain the radio-chromatogram with Laura 6.0.5.101 software (Lablogic, Sheffield, UK). The percentage of each metabolite in urine, feces, and bile (%dose) and the ratio of metabolites in the plasma (% area under the curve, %AUC) were calculated.

[6] = tested on: human serum albumin; set-up: method as in PMID 35149420; settings: covalent binding, unstable; cited from earlier work
[7] = SD rats, single oral 100 mg/kg, 0 to 168 h
[8] = 0–96 h pooled female SD rat urine
[9] = AUC0–72h pooled female SD rat plasma
[10] = AUC0–72h pooled male SD rat plasma

O=c1c2ccccc2[se]n1CCn1[se]c2ccccc2c1=O [BBSKE, 1,2-[bis(1,2-benzisoselenazolone-3 (2H)-ketone)]-ethane]
binding rates with albumin [1]: high

O=c1c2ccccc2[se]n1CCCCn1[se]c2ccccc2c1=O [BS1801]
absorption in rats (inferred from urine and bile recovery) ([2]; SD rats, single oral 100 mg/kg): not well absorbed | radioactive recovery in either urine or bile ([2]; SD rats, single oral 100 mg/kg): less than 1 % of the dose | mean radioactive recovery in urine and feces ([2]; SD rats, single oral 100 mg/kg (100 μCi/kg), 0 to 168 h): 93.39% | cumulative excretion of radioactive substances in feces [2, 7]: 92.77 % of the dose | cumulative excretion of radioactive substances in urine [2, 7]: 0.62 % of the dose | mean radioactive recovery in urine and feces ([2]; SD rats, single oral 100 mg/kg, within 0–48 h): 91.57% | cumulative excretion of radioactive substances in feces ([2]; female SD rats): 93.22 % of the dose | cumulative excretion of radioactive substances in feces ([2]; male SD rats): 92.32 % of the dose | recovery of radioactivity in bile [3]: 0.58% | ratio of AUC0–96h of brain to that of plasma, rank among analyzed tissues ([4]; brain, LE rats): the lowest | ratio of tissue AUC0–96h to plasma AUC0–96h ([4]; eyes, male LE rats): 5.35 | average ratio of blood AUC0–96h to plasma AUC0–96h ([4]; female LE rats): 0.45 | ratio of tissue AUC0–96h to plasma AUC0–96h ([4]; large intestine, female LE rats): 16.82 | ratio of tissue AUC0–96h to plasma AUC0–96h ([4]; large intestine, male LE rats): 7.48 | ratio of tissue AUC0–96h to plasma AUC0–96h ([4]; liver, female LE rats): 6.59 | ratio of tissue AUC0–96h to plasma AUC0–96h ([4]; liver, male LE rats): 11.80 | average ratio of blood AUC0–96h to plasma AUC0–96h ([4]; male LE rats): 0.73 | ratios of other tissues AUC0–96h to plasma AUC0–96h ([4]; other tissues, all rats): lower than 5.00 | ratio of tissue AUC0–96h to plasma AUC0–96h ([4]; stomach, male LE rats): 10.60 | amount in urine [5, 8]: not detected | amount in urine ([5]; 0–96 h pooled male SD rat urine): not detected | share of total plasma radioactivity [5, 9]: undetected | share of total plasma radioactivity [5, 10]: not detected | detection of parent drug in bile ([5]; SD rat bile): not detected | unchanged drug in rat feces ([5]; SD rat feces, male and female): more than 75.00 % of the dose | recovery of radioactivity in the supernatant after protein precipitation of pooled plasma ([5]; female SD rats): 91.23% | recovery of radioactivity in the supernatant after protein precipitation of pooled plasma ([5]; male SD rats): 105.85% | amount in feces ([5]; pooled female SD rat feces (0–48 h)): 81.89 % of the dose | amount in feces ([5]; pooled male SD rat feces (0–48 h)): 76.97 % of the dose | binding to human serum albumin [6]: rapidly and thoroughly

C[Se]c1ccccc1C(=O)NCCCCNC(=O)c1ccccc1[Se]C [M2]
share of total plasma radioactivity [5, 9]: 81.33 % of the total plasma radioactivity | share of total plasma radioactivity [5, 10]: 65.41 % of the total radioactivity

C[Se]c1ccccc1C(=O)NCCCCN [M286]
amount in urine [5, 8]: 0.20 % of the dose | amount in bile ([5]; pooled 0–48 h male SD rat bile): less than 0.1 % of the dose

O=c1c2ccccc2[se]n1-c1ccccc1 [ebselen, 2-phenyl-1,2-benzisoselenazol-3(2H)-one]
binding rates with albumin [1]: high
